Experimental data published in patent US20250304560A1, “MODULATORS OF NLRP3 INFLAMMASOME AND RELATED PRODUCTS AND METHODS” (Neumora Therapeutics, Inc., priority 2022, published 2025).
Read-outs that look alike come from different tables or passages of the source.

Assays:
IL-6 = IL-6 AlphaLISA in LPS-primed THP1 macrophages
hERG channels = target: T1, hERG channels (Homo sapiens, UniProt Q12809); assay: hERG assay, whole-cell patch-clamp in CHO-hERG cells; format: cell-based; conditions: for IC50: whole-cell patch-clamp, CHO-hERG cells
T1 construct: host or cells: CHO-hERG cells
T1 sequence (Q12809 whole entry): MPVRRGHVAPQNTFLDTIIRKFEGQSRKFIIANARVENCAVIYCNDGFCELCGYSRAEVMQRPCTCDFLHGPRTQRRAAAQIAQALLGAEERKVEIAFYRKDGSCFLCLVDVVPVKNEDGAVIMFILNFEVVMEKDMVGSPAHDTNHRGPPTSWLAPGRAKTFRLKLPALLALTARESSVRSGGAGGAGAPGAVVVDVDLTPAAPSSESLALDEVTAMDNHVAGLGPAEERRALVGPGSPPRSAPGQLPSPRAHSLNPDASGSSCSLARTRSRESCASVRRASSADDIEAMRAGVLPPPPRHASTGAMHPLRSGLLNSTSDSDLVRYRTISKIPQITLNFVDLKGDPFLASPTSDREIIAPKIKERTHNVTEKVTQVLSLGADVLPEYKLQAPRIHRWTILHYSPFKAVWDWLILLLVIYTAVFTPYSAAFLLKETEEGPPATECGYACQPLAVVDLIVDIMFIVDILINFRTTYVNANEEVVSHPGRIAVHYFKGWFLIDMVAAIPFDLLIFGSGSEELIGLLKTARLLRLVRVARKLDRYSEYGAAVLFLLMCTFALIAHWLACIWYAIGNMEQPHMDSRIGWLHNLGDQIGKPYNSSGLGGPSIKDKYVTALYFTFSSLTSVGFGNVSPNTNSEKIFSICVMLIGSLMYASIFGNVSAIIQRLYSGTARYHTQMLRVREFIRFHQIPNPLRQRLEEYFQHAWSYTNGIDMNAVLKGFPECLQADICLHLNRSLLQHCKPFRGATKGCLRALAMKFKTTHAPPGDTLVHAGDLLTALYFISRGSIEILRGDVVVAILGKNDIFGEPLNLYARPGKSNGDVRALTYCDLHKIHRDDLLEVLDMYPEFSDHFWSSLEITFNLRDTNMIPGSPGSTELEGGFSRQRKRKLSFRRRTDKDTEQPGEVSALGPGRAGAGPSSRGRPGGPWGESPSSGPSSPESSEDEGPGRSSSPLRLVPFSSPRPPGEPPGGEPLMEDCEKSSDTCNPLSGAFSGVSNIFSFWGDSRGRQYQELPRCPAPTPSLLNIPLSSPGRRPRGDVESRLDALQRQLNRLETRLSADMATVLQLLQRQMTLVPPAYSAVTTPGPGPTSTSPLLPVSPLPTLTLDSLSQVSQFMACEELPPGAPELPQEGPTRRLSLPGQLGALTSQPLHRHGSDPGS
Experimental: CHO-hERG cells (Sophion Biosciences (Ballerup, Denmark), subcultured and frozen in WuXi AppTec (Suzhou) Co., Ltd.), stored in liquid nitrogen, were tested and determined to be free from mycoplasma contamination. Cells were not used after the 30th passage. CHO-hERG cells were cultured in a humidified incubator of 5% CO2 (4% to 8%) in air at 37° C. (±2° C.). The cells were recovered with recovery medium (F12 medium with 10% fetal bovine serum), subcultured in complete medium (F12 medium, supplemented with 10% fetal bovine serum, 1% Geneticin® selective antibiotic (G418), 89 μg/mL Hygromycin B (HB)), and the culture medium was switched to recovery medium in the last subculture before patch-clamp experiment.
To determine the compounds' IC50, select compounds (“test articles”) were dissolved into DMSO, and then diluted with ECS to get working solutions. Five concentrations of 0.3, 1, 3, 10, and 30 μM were tested. Two replicate cells for each concentration were tested.
Exponentially growing CHO-hERG cells were collected and suspended in extracellular solution for use. The hERG current was recorded at physiological temperature (33.0° C. to 37.0° C.) using whole-cell patch-clamp techniques. Output signals from the patch-clamp amplifier were digitized and low-pass filtered at 2.9 KHz. The recording was controlled with Patchmaster Pro software. The recording chamber with seeded cells was mounted on an inverted microscope stage. A cell in the recording chamber was randomly selected for testing. The cell was continuously perfused from the perfusion system. A micropipette filled with ICS was used as recording electrode in the manual patch-clamp study. The micropipette was prepared on the day of the patch-clamp experiment using glass capillaries (BF150-117-10, SUTTER INSTRUMENT USA). The pipette resistance (Rp) was within 2 to 5 MΩ with ICS filled. From the holding potential of-80 mV, the voltage was increased to +60 mV for 850 ms to open the hERG channels. After that, the voltage was decreased to-50 mV for 1275 ms, causing a “rebound” or tail current, the peak tail current was measured and collected for data analysis. Finally, the voltage was decreased to the holding potential (−80 mV). This command voltage protocol was repeated every 15 s continuously during the test article application.
During the initial recording period with vehicle control working solution, the peak tail current amplitude was monitored until it had been stable for at least 3 sweeps. Cells were then perfused with test article/positive control working solutions until the peak tail current amplitude reached steady state. Steady state was considered reached when three consecutive super-imposable peak tail currents were collected. At this point, cells were once again perfused with next concentration of test article. One or more test articles/positive control or different concentrations of the same test article were tested on each cell with vehicle control washout until the current amplitude returned to values at least 80% of those measured before application of test article. […] At least 2 replicate cells for each concentration were tested. […] (Milnes, J. T., et al.)
Seal criteria: When acquiring whole-cell configuration, a holding potential (e.g.,-80 mV) was applied while membrane parameters were collected (Cm, Rm and Rs). A “good” whole-cell recording was generally defined as: series resistance (Rs) was less than 10 MΩ; membrane resistance (Rm) was more than 500 MΩ and membrane capacitance (Cm) was less than 100 pF. Current amplitude: The peak current amplitude must be between 400 pA and 5000 pA before the test article/positive control application; otherwise the cell was discarded. Leak criteria: At-80 mV holding potential, the absolute leak current value must be less than 200 pA. The amplitude of current was adjusted with leak current at-80 mV. The sweeps which absolute leak current value was more than 200 pA was not used in data analysis.

NLRP3 inflammasome = NLRP3 inflammasome (Homo sapiens, UniProt Q96P20); assay: NLRP3 inflammasome activation in THP1 macrophages, IL-1β AlphaLISA
Sequence of NLRP3 inflammasome (Q96P20 whole entry): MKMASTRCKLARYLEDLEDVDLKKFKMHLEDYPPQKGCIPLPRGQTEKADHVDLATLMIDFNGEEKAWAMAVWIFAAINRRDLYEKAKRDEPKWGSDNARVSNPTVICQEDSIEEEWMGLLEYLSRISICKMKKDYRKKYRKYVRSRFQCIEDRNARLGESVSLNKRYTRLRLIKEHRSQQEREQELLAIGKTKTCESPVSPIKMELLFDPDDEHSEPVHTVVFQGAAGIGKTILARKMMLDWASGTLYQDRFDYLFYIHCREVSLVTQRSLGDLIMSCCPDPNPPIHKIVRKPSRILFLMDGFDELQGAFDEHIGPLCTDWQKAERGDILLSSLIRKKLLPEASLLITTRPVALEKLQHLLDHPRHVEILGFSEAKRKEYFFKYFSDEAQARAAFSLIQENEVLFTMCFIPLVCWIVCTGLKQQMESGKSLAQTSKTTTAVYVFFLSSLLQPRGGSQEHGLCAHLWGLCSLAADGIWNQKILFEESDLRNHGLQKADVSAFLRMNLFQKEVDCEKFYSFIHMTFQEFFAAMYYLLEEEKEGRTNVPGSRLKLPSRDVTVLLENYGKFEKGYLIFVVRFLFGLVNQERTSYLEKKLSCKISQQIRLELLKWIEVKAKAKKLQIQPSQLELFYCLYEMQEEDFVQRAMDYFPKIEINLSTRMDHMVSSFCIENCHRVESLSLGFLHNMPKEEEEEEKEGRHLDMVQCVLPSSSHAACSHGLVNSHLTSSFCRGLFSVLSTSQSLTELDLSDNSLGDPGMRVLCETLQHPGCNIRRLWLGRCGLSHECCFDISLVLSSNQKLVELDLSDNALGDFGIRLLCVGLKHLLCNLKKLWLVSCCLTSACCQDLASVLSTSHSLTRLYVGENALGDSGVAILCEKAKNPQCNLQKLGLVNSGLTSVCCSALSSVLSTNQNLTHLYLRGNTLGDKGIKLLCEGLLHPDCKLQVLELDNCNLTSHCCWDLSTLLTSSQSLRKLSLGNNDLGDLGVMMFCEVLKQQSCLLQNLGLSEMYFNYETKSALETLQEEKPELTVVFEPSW

[1] = IL-1β Activity (nM), THP1 macrophages, PMA, LPS priming, nigericin 6.7 uM activation
[2] = Homo sapiens, THP-1, read-out: IL-6 Activity (μM), THP1 macrophages, PMA, LPS priming, nigericin 6.7 uM
[3] = Homo sapiens, THP-1, read-out: IL-6 Activity (μM)

Row | Compound | IC50 (NLRP3 inflammasome; [1]) | IC50 (IL-6; [2]) | IC50 (NLRP3 inflammasome) | IC50 (IL-6; [3]) | further results
1 | Cc1cc(N[C@@H]2CCCN(C)C2)nnc1-c1ccc(C(F)(F)F)cc1O [A, reference compound] |  |  |  |  | IC50 (IL-6; Homo sapiens, THP-1, read-out: IL-6 Activity, LPS-primed THP1 macrophages, Table 11 comparison): > 10 µM; hERG inhibition (in words) (hERG channels): high; IC50 (hERG channels; Table 11 comparison): ≤ 1000 nM
2 | Cc1cc(N[C@H]2CN(C)CC[C@@H]2F)nnc1-c1ccc(F)cc1O [compound 48] | 10 to 100 nM | > 10 µM |  |  | 
3 | Cc1cc(N(C)[C@@H]2CCCN(C)C2)nnc1-c1ccc(F)c(C)c1O [compound 64] | 1 to 10 nM | > 10 µM |  |  | 
4 | Cc1cc(N(C)[C@@H]2CCCN(C)C2)nnc1-c1ccc(C#N)cc1O [compound 90] | < 1 nM | > 10 µM |  |  | 
5 | Cc1cc(-c2nnc(N[C@@H]3CCCN(C)C3)cc2C)c(O)cc1F [compound 65] | 1 to 10 nM | > 10 µM |  |  | 
6 | Cc1cc(-c2ccccc2O)nnc1O[C@@H]1CCCN(C)C1 [compound 99] |  |  | > 1000 nM | > 10 µM | 
7 | Cc1cc(-c2ccc(F)cc2O)nnc1N[C@@H]1CCCN(CCF)C1 [compound 86] | 500 to 1000 nM | > 10 µM |  |  | 
8 | CN1CC[C@@H](Nc2ccc(-c3ccc(F)cc3O)nn2)C1 [compound 30] | > 1000 nM | > 10 µM |  |  | 
9 | Cc1cc(F)cc(O)c1-c1ccc(O[C@@H]2CCCN(C)C2)nn1 [compound 72] |  |  | 10 to 100 nM | > 10 µM | 
10 | Cc1cc(-c2cccc(C)c2O)nnc1N[C@@H]1CCCN(C)C1 [compound 81] | 1 to 10 nM | > 10 µM |  |  | 
11 | Cc1cc(N[C@@H]2CCCN(C)C2)nnc1-c1c(C)cc(F)cc1O [compound 62] | 1 to 10 nM | > 10 µM |  |  | 
12 | Cc1ccc(O)c(-c2nnc(N[C@@H]3CCCN(C)C3)cc2C)c1 [compound 68] | 10 to 100 nM | > 10 µM |  |  | 
13 | Cc1c(F)ccc(-c2ccc(N(C)[C@@H]3CCCN(C)C3)nn2)c1O [compound 24] | 10 to 100 nM | 1 to 5 µM |  |  | 
14 | Cc1cc(N(C)[C@@H]2CCN(C)C2)nnc1-c1ccc(C(F)(F)F)cc1O [compound 97] |  |  | 10 to 100 nM | > 10 µM | 
15 | CN1CC[C@@H](N(C)c2ccc(-c3ccccc3O)nn2)C1 [compound 33] |  |  | > 1000 nM | > 10 µM | 
16 | Cc1cc(O[C@@H]2CCCN(C)C2)nnc1-c1ccccc1O [compound 71] |  |  | 10 to 100 nM | > 10 µM | 
17 | Cc1cc(N[C@@H]2CCN(C)C2)nnc1-c1ccc(C(F)(F)F)cc1O [compound 96] | 1 to 10 nM | > 10 µM |  |  | 
18 | Cc1cc(N[C@@H]2CCCN(C)C2)nnc1-c1ncc(C(F)(F)F)cc1O [compound 107] |  |  | < 1 nM | > 10 µM | 
19 | CN1CCC[C@@H](N(C)c2ccc(-c3ccc(F)cc3O)nn2)C1 [compound 20] | > 1000 nM | 5 to 10 µM |  |  | 
20 | CCN1CCC[C@@H](Nc2ccc(-c3c(C)cc(F)cc3O)nn2)C1 [compound 60] | < 1 nM | > 10 µM |  |  | 
21 | Cc1cc(N2CCC[C@@H](N(C)C)C2)nnc1-c1ccc(C#N)cc1O [compound 112] |  |  | > 1000 nM | > 10 µM | 
22 | Cc1cc(N[C@H]2CN(C)CC(F)(F)C2)nnc1-c1ccccc1O [compound 40] | 500 to 1000 nM | > 10 µM |  |  | 
23 | Cc1cc(CC2CCCN(C)C2)nnc1-c1ccc(C#N)cc1O (stereo not drawn) [compound 102] |  |  | 100 to 500 nM | > 10 µM | 
24 | CCc1ccc(-c2ccc(N(C)[C@@H]3CCCN(C)C3)nn2)c(O)c1 [compound 27] | 10 to 100 nM | > 10 µM |  |  | 
25 | Cc1cc(N[C@H]2CN(C)CC[C@H]2F)nnc1-c1ccc(F)cc1O [compound 49] | 10 to 100 nM | > 10 µM |  |  | 

Row | Compound | IC50 (NLRP3 inflammasome; [1]) | IC50 (IL-6; [2]) | IC50 (NLRP3 inflammasome) | IC50 (IL-6; [3]) | further results
26 | Cc1cc(-c2c(C)cc(F)cc2O)nnc1N[C@@H]1CCCN(C)C1 [compound 84] | 1 to 10 nM | > 10 µM |  |  | 
27 | CN1CC[C@@H](N(C)c2ccc(-c3ccc(F)cc3O)nn2)C1 [compound 32] |  |  | > 1000 nM | > 10 µM | 
28 | Cc1cc(-c2ccc(F)cc2O)nnc1O[C@@H]1CCCN(C)C1 [compound 35] |  |  | 10 to 100 nM | 5 to 10 µM | 
29 | Cc1cc(N[C@@H]2CCCN(C)C2)nnc1-c1c(C)cccc1O [compound 69] | 1 to 10 nM | 5 to 10 µM |  |  | 
30 | Cc1cc(N(C)[C@@H]2CCCN(C)C2)nnc1-c1ccc(C2CC2)cc1O [compound 28] |  |  | < 1 nM | < 1 µM | 
31 | CN1CC[C@@H](Nc2ccc(-c3ccccc3O)nn2)C1 [compound 31] | > 1000 nM | > 10 µM |  |  | 
32 | Cc1cc(F)cc(O)c1-c1ccc(N[C@@H]2CCCN(C)C2)nn1 [compound 6] | < 1 nM | 5 to 10 µM |  |  | 
33 | Cc1cc(N[C@@H]2CCCN(C)C2)nnc1-c1ccc(F)c(C)c1O [compound 63] | < 1 nM |  |  |  | IC50 (IL-6; read-out: IL-6 Activity, THP1 macrophages, PMA, LPS priming, nigericin 6.7 uM): > 10 µM
34 | Cc1cc(-c2nnc(N(C)[C@@H]3CCCN(C)C3)cc2C)c(O)cc1F [compound 66] | 100 to 500 nM | 5 to 10 µM |  |  | 
35 | Cc1cc(-c2ccc(F)cc2O)nnc1N[C@@H]1CCCN(C)C1 [compound 77] | 10 to 100 nM | > 10 µM |  |  | 
36 | Cc1cc(N[C@@H]2CCCN(C)C2)nnc1-c1ccc(C(=O)O)cc1O [compound 92] | 10 to 100 nM | > 10 µM |  |  | 
37 | Cc1cc(NCC23CC(CO2)C3)nnc1-c1ccccc1O [compound 118] |  |  | > 1000 nM | > 10 µM | 
38 | Cc1cc(O[C@@H]2CCCN(C)C2)nnc1-c1ccc(C(F)(F)F)cc1O [compound 73, (R)-2-(4-methyl-6-((1-methylpiperidin-3-yl)oxy)pyridazin-3-yl)-5-(trifluoromethyl) phenol] |  |  | > 1000 nM | > 10 µM | 
39 | Cc1cc(NC[C@H]2CCCO2)nnc1-c1ccccc1O [compound 116] |  |  | > 1000 nM | > 10 µM | 
40 | Cc1cc(-c2ccc(N(C)[C@@H]3CCCN(C)C3)nn2)c(O)cc1F [compound 25] | > 1000 nM | 1 to 5 µM |  |  | 
41 | Cc1cc(-c2ccc(C#N)cc2O)nnc1N[C@@H]1CCCN(C)C1 [compound 91] | 10 to 100 nM | > 10 µM |  |  | 
42 | Cc1cc(C[C@@H]2CCCN(C)C2)nnc1-c1ccc(C(F)(F)F)cc1O [compound 37] |  |  | 500 to 1000 nM | > 10 µM | 
43 | Cc1cc(N[C@H]2CN(C)CC[C@H]2F)nnc1-c1ccccc1O [compound 50] | 10 to 100 nM | > 10 µM |  |  | 
44 | COC(C)(C)C(=O)Nc1cc(C)c(-c2ccccc2O)nn1 [compound 123] |  |  | > 1000 nM | > 10 µM | 
45 | Cc1cccc(-c2ccc(N[C@@H]3CCCN(C)C3)nn2)c1O [compound 5] | 1 to 10 nM | > 10 µM |  |  | 
46 | CCc1ccc(-c2nnc(N[C@@H]3CCCN(C)C3)cc2C)c(O)c1 [compound 15] | < 1 nM |  |  |  | IL-1ß activity (in words) (NLRP3 inflammasome): potent; IC50 (NLRP3 inflammasome; IL-1β Activity, THP1 macrophages, Table 11 comparison): < 1 nM; hERG inhibition (in words) (hERG channels): high; IC50 (hERG channels; 33.0-37.0 °C, Table 10): 3000 to 10000 nM; IC50 (hERG channels; Table 11 comparison): 3000 to 10000 nM
47 | COC(C)(C)CNc1cc(C)c(-c2ccccc2O)nn1 [compound 124] |  |  | > 1000 nM | > 10 µM | 
48 | Cc1cc(C[C@H]2CCCN(C)C2)nnc1-c1ccc(C(F)(F)F)cc1O [compound 104] |  |  | 1 to 10 nM | > 10 µM | 
49 | Cc1cc(C[C@H]2CCCN(C)C2)nnc1-c1ccccc1O [compound 105] |  |  | > 1000 nM | > 10 µM | 
50 | Cc1cc(NC[C@H]2CCC(F)(F)C2)nnc1-c1ccccc1O [compound 113] |  |  | > 1000 nM | > 10 µM | 
